For assay [1], the system named is Curvularia australiensis. Put plainly: Antimicrobial activity against Curvularia australiensis assessed as growth inhibition by microdilution method. It is filed as functional.
Assay [2] has as its system Aspergillus niger. Kind of assay: Antimicrobial activity against Aspergillus niger assessed as growth inhibition by microdilution method. The class given is functional. Background: In broth dilution the organism is exposed to a series of concentrations in liquid medium.
Assay [3] deals with Alternaria alternata. Put plainly: Antimicrobial activity against Alternaria alternata assessed as growth inhibition by microdilution method. The class given is functional.
For assay [4], the system named is Aspergillus flavus. Put plainly: Antimicrobial activity against Aspergillus flavus assessed as growth inhibition by microdilution method. The class given is functional.
For assay [5], the system named is Trichoderma reesei. Kind of assay: Antimicrobial activity against Trichoderma reesei assessed as growth inhibition by microdilution method. It is filed as functional.
Assay [6] concerns Escherichia coli. Put plainly: Antimicrobial activity against Escherichia coli assessed as growth inhibition by microdilution method.
Assay [7] has as its system Bacillus subtilis. Kind of assay: Antimicrobial activity against Bacillus subtilis assessed as growth inhibition by microdilution method.
Assay [8] deals with Staphylococcus aureus. Kind of assay: Antimicrobial activity against Staphylococcus aureus assessed as growth inhibition by microdilution method.
The test system of assay [9] is Klebsiella aerogenes. Put plainly: Antimicrobial activity against Enterobacter aerogenes assessed as growth inhibition by microdilution method.
The subject of assay [10] is Streptococcus pyogenes. Kind of assay: Antimicrobial activity against Streptococcus pyogenes assessed as growth inhibition by microdilution method.
Assay [11] deals with Salmonella typhimurium. Kind of assay: Antimicrobial activity against Salmonella enterica subsp. enterica serovar Typhimurium assessed as growth inhibition by microdilution method.

Molecules are shown by their SMILES. Some results are limits rather than exact numbers.

Broadly, the MIC is the smallest concentration in the dilution series that meets the test's criterion for growth inhibition.

`COc1ccc2nc3c(cc2c1)C=NN=C(Nc1c(C)cccc1C)S3`: the MIC in [1] is 500 µg/mL; in [2], 1000 µg/mL; in assay [3], 1000 µg/mL; in assay [4] it was 500 µg/mL; in [5], 500 µg/mL; in assay [6], 500 µg/mL. Besides, the MIC amounted to 1000 µg/mL in [7]; 1000 µg/mL in assay [8]; 500 µg/mL in assay [9]; 500 µg/mL in assay [10]; 500 µg/mL in [11].
Take `COc1ccc2nc3c(cc2c1)C=NN=C(Nc1ccc(C)cc1C)S3`: the MIC in [1] worked out at 500 µg/mL; in assay [2] it was 1000 µg/mL; in assay [3], 250 µg/mL; in assay [4], 1000 µg/mL; in [5], 500 µg/mL; in assay [6], 500 µg/mL. For the same molecule, the MIC is 1000 µg/mL in assay [7]; 1000 µg/mL in assay [8]; 1000 µg/mL in [9]; 1000 µg/mL in [10]; 500 µg/mL in [11].
`CCc1ccc(NC2=NN=Cc3cc4cc(OC)ccc4nc3S2)cc1`: the MIC stood at 1000 µg/mL in [1]; 500 µg/mL in assay [2]; 500 µg/mL in assay [3]; 500 µg/mL in assay [4]; 500 µg/mL in [5]; 500 µg/mL in [6]. For the same molecule, the MIC in [7], in assay [8], in [9], in assay [10] and in assay [11] was 500 µg/mL each time.
With `COc1ccc2nc3c(cc2c1)C=NN=C(NCc1ccccc1)S3`, the MIC is 1000 µg/mL in assay [1]; 1000 µg/mL in assay [2]; 1000 µg/mL in assay [3]; 1000 µg/mL in [4]; 500 µg/mL in assay [5]; 1000 µg/mL in assay [6]. Also, the MIC in assay [7] was found to be 1000 µg/mL; in [8] it was 1000 µg/mL; in assay [9], 125 µg/mL; in assay [10] it was 1000 µg/mL; in [11], 500 µg/mL.
As to `COc1ccc2nc3c(cc2c1)C=NN=C(NCCN1CCOCC1)S3`, the MIC in assay [1] is 1000 µg/mL; in assay [2], 1000 µg/mL; in [3], 1000 µg/mL; in [4] it was 500 µg/mL; in [5], 1000 µg/mL; in [6], 500 µg/mL. The MIC came to 500 µg/mL in assay [7]; 500 µg/mL in assay [8]; 1000 µg/mL in [9]; 500 µg/mL in [10]; 500 µg/mL in assay [11].
`Cc1cccc2cc3c(nc12)SC(Nc1ccccc1)=NN=C3`: the MIC is more than 1000 µg/mL in [1]; 1000 µg/mL in [2]; 1000 µg/mL in [3]; 1000 µg/mL in assay [4]; 500 µg/mL in assay [5]; 1000 µg/mL in assay [6]. Besides, the MIC in assay [7], in [8], in assay [9], in [10] and in assay [11] was 1000 µg/mL each time.
On to `Cc1cccc2cc3c(nc12)SC(Nc1ccccc1F)=NN=C3`, for which the MIC in assay [1] was 1000 µg/mL; in [2], more than 1000 µg/mL; in [3], 1000 µg/mL; in assay [4] it was 1000 µg/mL; in assay [5], 1000 µg/mL; in [6] it was 500 µg/mL. The MIC in assay [7] came out at 500 µg/mL; in assay [8] it was 1000 µg/mL; in assay [9] it was 500 µg/mL; in assay [10], 1000 µg/mL; in [11] it was 250 µg/mL.
Consider `Cc1cccc2cc3c(nc12)SC(Nc1cccc(F)c1)=NN=C3`, for which the MIC worked out at 1000 µg/mL in assay [1]; 1000 µg/mL in assay [2]; 500 µg/mL in assay [3]; 1000 µg/mL in assay [4]; 500 µg/mL in assay [5]; 1000 µg/mL in assay [6]. Besides, the MIC in assay [7] is 1000 µg/mL; in [8] it was 500 µg/mL; in [9] it was 1000 µg/mL; in [10], 500 µg/mL; in [11] it was 500 µg/mL.
In the case of `Cc1cccc2cc3c(nc12)SC(Nc1ccc(F)cc1)=NN=C3`, the MIC turned out to be 1000 µg/mL in [1]; 1000 µg/mL in [2]; 500 µg/mL in assay [3]; 1000 µg/mL in assay [4]; 500 µg/mL in assay [5]; 250 µg/mL in assay [6]. Further, the MIC in [7] amounted to 500 µg/mL; in [8], 250 µg/mL; in [9] it was 500 µg/mL; in [10], 250 µg/mL; in assay [11], 500 µg/mL.
In the case of `Cc1cccc2cc3c(nc12)SC(Nc1ccccc1Cl)=NN=C3`, the MIC is 500 µg/mL in assay [1]; more than 1000 µg/mL in assay [2]; 1000 µg/mL in [3]; 1000 µg/mL in assay [4]; 1000 µg/mL in [5]; more than 1000 µg/mL in assay [6]. The MIC in [7], in assay [8], in assay [9], in assay [10] and in [11] was more than 1000 µg/mL in each case.
In the case of `Cc1cccc2cc3c(nc12)SC(Nc1cccc(Cl)c1)=NN=C3`, the MIC in assay [1] was determined as 1000 µg/mL; in [2], 500 µg/mL; in [3], 500 µg/mL; in assay [4] it was 1000 µg/mL; in assay [5] it was 1000 µg/mL; in [6], 1000 µg/mL. For the same molecule, the MIC in assay [7], in [8], in assay [9], in [10] and in [11] was 1000 µg/mL throughout.
As to `Cc1cccc2cc3c(nc12)SC(Nc1ccc(Cl)cc1)=NN=C3`, the MIC in [1] amounted to 500 µg/mL; in assay [2], 1000 µg/mL; in assay [3], 500 µg/mL; in [4], 250 µg/mL; in assay [5] it was 1000 µg/mL; in [6], 1000 µg/mL. Also, the MIC in assay [7], in [8], in [9], in assay [10] and in assay [11] was 1000 µg/mL throughout.
Take `Cc1ccccc1NC1=NN=Cc2cc3cccc(C)c3nc2S1`: the MIC in assay [1] came out at 500 µg/mL; in [2] it was 500 µg/mL; in assay [3], 1000 µg/mL; in [4] it was 125 µg/mL; in assay [5] it was 125 µg/mL; in [6], 1000 µg/mL. For the same molecule, the MIC in assay [7], in assay [8], in [9], in [10] and in assay [11] was 1000 µg/mL each time.
In the case of `Cc1ccc(NC2=NN=Cc3cc4cccc(C)c4nc3S2)cc1`, the MIC came out at 1000 µg/mL in assay [1]; 1000 µg/mL in [2]; 1000 µg/mL in assay [3]; 500 µg/mL in assay [4]; 500 µg/mL in assay [5]; 1000 µg/mL in assay [6]. In addition, the MIC in assay [7], in assay [8], in assay [9], in assay [10] and in assay [11] was 1000 µg/mL each time.
Consider `COc1ccc2nc3c(cc2c1)C=NN=C(Nc1ccc(C)cc1)S3`, for which the MIC in assay [1] was 500 µg/mL; in assay [2], more than 1000 µg/mL; in assay [3], 500 µg/mL; in assay [4], 1000 µg/mL; in assay [5] it was 1000 µg/mL; in assay [6], 500 µg/mL. For the same molecule, the MIC amounted to 250 µg/mL in assay [7]; 500 µg/mL in [8]; 500 µg/mL in [9]; 500 µg/mL in assay [10]; 500 µg/mL in assay [11].

(Values after ChEMBL document CHEMBL3046732, “Synthesis and biological evaluation of new [1,3,4]thiadiazepino[7,6-b]quinolin-2-amines as potent anti-microbial agents” (2013).)
